Measured values reported in a melting point compilation (Tetko et al.; mined from patent text by program, amines drawn as free bases though some values may be those of a salt).

SMILES | melting point [°C]
O=C(O)C1=Cc2cc(Cl)c(Oc3ccc(Cl)cc3Cl)cc2OC1C(F)(F)F (centres undefined) | 233 to 234
N#CCC(=O)c1cc(F)c(F)c(F)c1F | 55 to 57
CN(C)CCOc1cc2c(Nc3ccc(F)c(Cl)c3)c(C#N)cnc2cn1 | 131 to 132
CCCCCCCCCCCCC1CC(=C(C#N)C#N)CCC1=C(C#N)C#N (centres undefined) | 97
Cc1cncc(C)c1-c1c(C)cc(N)cc1C | 134 to 135
Cn1c(C=[N+](C)[O-])cnc1[N+](=O)[O-] | 208 to 209
O=C1NC(C(=O)NCCO[N+](=O)[O-])C(c2cccnc2)S1 (centres undefined) | 139 to 140
NS(=O)(=O)c1ccccc1OC(F)(F)C(F)(F)F | 145 to 146
Cc1oc2c(NC(=O)c3c(Cl)ccc(Cl)c3C(N)=O)cccc2c1C | 229 to 232
CCOC(=O)C(=CNN(C)C=O)C(=O)c1cc(F)c(F)c(F)c1F | 189
CCCc1nsc(N=C(Cl)N(C)C)c1C#N | 108 to 109
CC(=O)c1ccc(S(=O)(=O)Nc2nccs2)cc1 | 194 to 195
Cn1nnc2c(N3CCOCC3)nc(-c3ccc(NC(=O)Nc4cccs4)cc3)nc21 | 182
O=C(O)c1ccc([N+](=O)[O-])c(S(=O)(=O)CCO)c1 | 176 to 177
C=CCOc1cc([N+](=O)[O-])ccc1Cl | 58 to 59.5
CCOC(=O)C(=CNc1ccc2c(c1)N1CCN=C1S2)C(=O)OCC | 140

Other lines, results leading:

melting point [°C] | SMILES
151 | O=C[C@H](OCc1ccccc1)[C@@H](OCc1ccccc1)[C@H](OCc1ccccc1)[C@H](O)COCc1ccccc1
181 to 186 | COC(=O)c1ccccc1S(=O)(=O)NC(=O)Nc1nc(C)cc(CF)n1
192 to 194 | N#C/C=C/c1coc2ccccc2c1=O
143 | COc1ccc(S(=O)(=O)Nc2nc(-c3cccc([N+](=O)[O-])c3)c(CN3CCOCC3)s2)cc1OC
146 to 147 | CNc1nc2ccccc2c2[nH]c3ccccc3c12
115 to 121 | CCC(O)c1cc(C2(c3cccc(-c4cccnc4F)c3)N=C(N)N(C)C2=O)cn1CC (centres undefined)
77.5 to 79 | CC(C)N(CCS(=O)(=O)c1ccc(Cl)cc1)C(=O)Oc1ccccc1
244 to 247 | CC(C)(CN)c1ccc(-n2c(-c3cc(-c4cnc5ccccc5c4)ccn3)c[nH]c2=O)cc1
206 to 208 | NS(=O)(=O)c1ccc(-c2c(-c3ccccc3)noc2COc2ccc(C(=O)O)cc2)cc1
162 to 164 | CCCCCCn1c2c(c(=O)n3nc(-c4ccccc4)cc13)CN(C1CCCCC1)C2=O
119 to 121 | CCN1C(=O)C(C(=O)Nc2cccc(C(=O)Nc3ccc(Cl)cc3)c2)c2cc(C(C)=O)ccc21 (centres undefined)
68 to 70 | O=C(c1ccccc1)N1CCC(CCl)CC1
141 to 142 | CCOC(=O)c1sc2cc(OCc3ccccc3)ccc2c1S(=O)c1ccccc1 (centres undefined)
126 to 129 | Cc1oc2c(C)c(C)c(N3Cc4ccccc4C3)c(C)c2c1-c1ccc(C(C)C)cc1
161 to 162 | NC(=O)CNC(=O)c1cccc(-c2ccc(F)c3cc(Cc4ccc(F)c(F)c4)sc23)c1
228 to 229 | CC(=O)Nc1cc(-c2c(-c3cccc(C)c3)nc3ccc(Cl)nn23)ccn1
109 to 111 | O=C(c1ccccc1)C(OCc1ccc(Cl)cc1Cl)n1ccnc1 (centres undefined)
103 to 104 | CN(N=C(Cl)c1c(Cl)cccc1Cl)S(=O)(=O)c1ccccc1
162 to 164 | CN(C)CCNc1c2nc3ccccc3c-2n(C)c2ccccc12
201 | Cc1ccc(C2=NC(O)(C(F)(F)F)CN2c2ccc(S(C)(=O)=O)cc2)cc1Cl (centres undefined)
96 to 97 | CCCCCCCCCCCCCCCc1ccc(C(=O)O)c(O)c1
92 to 94 | COC(=O)c1sc(-c2ccccc2)cc1N=NN(C)C
142 to 143 | CC(C)(NC(=O)CCSC(=O)c1ccccc1)C(=O)O
